Measured values as given in ChEMBL document CHEMBL5532761, “Rosavin improves insulin resistance and alleviates hepatic and kidney damage via modulating the cGAS-STING pathway and autophagy signaling in HFD/STZ-induced T2DM animals” (2024).
Activity calls are given as the source filed them. The rule behind the calls is not given here.

Columns and labels:
[1] = system: Rattus norvegicus; assay: (§1) Antidiabetic activity in high fat diet-STZ induced diabetic Wistar rat model assessed as blood urea nitrogen level at 20 mg/kg, ip pretreated with high fat diet for 4 weeks followed by 8 hrs fasting after STZ administration and measured 4 weeks after compound treatment (reference value: 466.4 +/- 51.16 mg%); format: functional
[2] = system: Rattus norvegicus; assay: (§2) Antidiabetic activity in high fat diet-STZ induced diabetic Wistar rat model assessed as protection against vacuolar changes throughout hepatic lobules at 10 mg/kg, ip pretreated with high fat diet for 4 weeks followed by 8 hrs fasting after STZ administration and measured 4 weeks after compound treatment by hematoxylin and eosin staining based microscopic analysis; format: functional, organism-based
[3] = system: Rattus norvegicus; assay: (§3) Antidiabetic activity in high fat diet-STZ induced diabetic Wistar rat model assessed as AST level at 10 mg/kg, ip pretreated with high fat diet for 4 weeks followed by 8 hrs fasting after STZ administration and measured 4 weeks after compound treatment (reference value: 136.3 +/- 22.8 IU/L); format: functional
[4] = system: Rattus norvegicus; assay: as §1, with “30” for “20”; format: functional
[5] = system: Rattus norvegicus; assay: as §1, with “cholesterol” for “blood urea nitrogen”, “10.39” for “466.4”, “1.3 mmol/L)” for “51.16 mg%)”; format: functional
[6] = system: Rattus norvegicus; assay: Antidiabetic activity in high fat diet-STZ induced diabetic Wistar rat model assessed as creatinine level at 30 mg/kg, ip pretreated with high fat diet for 4 weeks followed by 8 hrs fasting after STZ administration and measured 4 weeks after compound treatment (reference value: 3.88 +/- 0.502 mg%); format: functional
[7] = system: Rattus norvegicus; assay: as §2, with “reduction in tubular dilation in kidney” for “protection against vacuolar changes throughout hepatic lobules”, “30” for “10”; format: functional, organism-based
[8] = system: Rattus norvegicus; assay: as §2, with “appearance of apparent intact segments in kidney” for “protection against vacuolar changes throughout hepatic lobules”; format: functional, organism-based
[9] = system: Rattus norvegicus; assay: as §3, with “LDL-cholesterol” for “AST”, “6.54” for “136.3”, “0.918 mmol/L)” for “22.8 IU/L)”; format: functional
[10] = system: Rattus norvegicus; assay: (§4) Antidiabetic activity in high fat diet-STZ induced diabetic Wistar rat model assessed as HOMA-IR level at 30 mg/kg, ip pretreated with high fat diet for 4 weeks followed by 8 hrs fasting after STZ administration and measured 4 weeks after compound treatment (reference value: 21.51 +/- 2.17); format: functional
[11] = system: Rattus norvegicus; assay: Antidiabetic activity in high fat diet-STZ induced diabetic Wistar rat model assessed as ALT level at 30 mg/kg, ip pretreated with high fat diet for 4 weeks followed by 8 hrs fasting after STZ administration and measured 4 weeks after compound treatment (reference value: 152.1 +/- 23.64 IU/L); format: functional
[12] = system: Rattus norvegicus; assay: (§5) Antidiabetic activity in high fat diet-STZ induced diabetic Wistar rat model assessed as HOMA-IR level at 10 mg/kg, ip pretreated with high fat diet for 4 weeks followed by 8 hrs fasting after STZ administration and measured 4 weeks after compound treatment (reference value: 21.51 +/- 2.17); format: functional
[13] = system: Rattus norvegicus; assay: (§6) Antidiabetic activity in ip dosed high fat diet-STZ induced diabetic Wistar rat model assessed as reduction of STING mRNA expression in kidney pretreated with high fat diet for 4 weeks followed by 8 hrs fasting after STZ administration and measured 4 weeks after compound treatment by RT-qPCR analysis; format: functional, organism-based; settings: dose 10-30 mg/kg
[14] = system: Rattus norvegicus; assay: as §6, with “adipose tissue” for “kidney”; format: functional, organism-based; settings: dose 10-30 mg/kg
[15] = system: Rattus norvegicus; assay: as §2, with “reduction in interstitial inflammatory cell infiltration in kidney” for “protection against vacuolar changes throughout hepatic lobules”; format: functional, organism-based
[16] = system: Rattus norvegicus; assay: as §2, with “reduction in abnormal infiltrates in liver” for “protection against vacuolar changes throughout hepatic lobules”, “20” for “10”; format: functional, organism-based
[17] = system: Rattus norvegicus; assay: as §2, with “intact tubular segments in kidney” for “protection against vacuolar changes throughout hepatic lobules”, “20 to 30” for “10”; format: functional, organism-based; settings: dose 20-30 mg/kg
[18] = system: Rattus norvegicus; assay: as §4, with “LDL-cholesterol” for “HOMA-IR”, “20” for “30”, “6.54” for “21.51”, “0.918 mmol/L)” for “2.17)”; format: functional
[19] = system: Rattus norvegicus; assay: Antidiabetic activity in high fat diet-STZ induced diabetic Wistar rat model assessed as ALT level at 10 mg/kg, ip pretreated with high fat diet for 4 weeks followed by 8 hrs fasting after STZ administration and measured 4 weeks after compound treatment (reference value: 152.1 +/- 23.64 IU/L); format: functional
[20] = system: Rattus norvegicus; assay: as §6, with “ZBP1” for “STING”, “adipose tissue” for “kidney”; format: functional, organism-based; settings: dose 10-30 mg/kg
[21] = system: Rattus norvegicus; assay: (§7) Antidiabetic activity in high fat diet-STZ induced diabetic Wistar rat model assessed as AST level at 20 mg/kg, ip pretreated with high fat diet for 4 weeks followed by 8 hrs fasting after STZ administration and measured 4 weeks after compound treatment (reference value: 136.3 +/- 22.8 IU/L); format: functional
[22] = system: Rattus norvegicus; assay: as §5, with “glucose” for “HOMA-IR”, “level in serum” for “level”, “527.7” for “21.51”, “49.1 mg%)” for “2.17)”; format: functional
[23] = system: Rattus norvegicus; assay: (§8) Antidiabetic activity in high fat diet-STZ induced diabetic Wistar rat model assessed as mean area percentage of LC3B in liver at 20 mg/kg, ip pretreated with high fat diet for 4 weeks followed by 8 hrs fasting after STZ administration and measured after 4 weeks of compound treatment by immunohistochemistry based microscopic analysis (reference value: 0.742 +/- 0.143 %); format: functional
[24] = system: Rattus norvegicus; assay: as §8, with “TNFalpha” for “LC3B”, “kidney” for “liver”, “10” for “20”, “24” for “0.742”, “1.5” for “0.143”; format: functional
[25] = system: Rattus norvegicus; assay: Antidiabetic activity in ip dosed high fat diet-STZ induced diabetic Wistar rat model assessed as reduction of miR-1976 expression in kidney pretreated with high fat diet for 4 weeks followed by 8 hrs fasting after STZ administration and measured 4 weeks after compound treatment by RT-qPCR analysis; format: functional, organism-based; settings: dose 10-30 mg/kg
[26] = system: Rattus norvegicus; assay: as §4, with “cholesterol” for “HOMA-IR”, “10.39” for “21.51”, “1.3 mmol/L)” for “2.17)”; format: functional
[27] = system: Rattus norvegicus; assay: Antidiabetic activity in ip dosed high fat diet-STZ induced diabetic Wistar rat model assessed as reduction of DDX58 mRNA expression in liver pretreated with high fat diet for 4 weeks followed by 8 hrs fasting after STZ administration and measured 4 weeks after compound treatment by RT-qPCR analysis; format: functional, organism-based; settings: dose 10-30 mg/kg
[28] = system: Rattus norvegicus; assay: as §5, with “insulin” for “HOMA-IR”, “level in serum” for “level”, “treatment by ELISA” for “treatment”, “16.53” for “21.51”, “1.14 microU/ml)” for “2.17)”; format: functional
[29] = system: Rattus norvegicus; assay: as §1, with “10” for “20”; format: functional
[30] = system: Rattus norvegicus; assay: as §2, with “reduction in degenerative” for “protection against vacuolar”, “in liver” for “throughout hepatic lobules”, “30” for “10”; format: functional, organism-based
[31] = system: Rattus norvegicus; assay: as §7, with “HDL-cholesterol” for “AST”, “0.688” for “136.3”, “0.288 mmol/L)” for “22.8 IU/L)”; format: functional

Compound: O[C@@H]1[C@@H](O)[C@H](OC/C=C/c2ccccc2)O[C@H](CO[C@@H]2OC[C@H](O)[C@H](O)[C@H]2O)[C@H]1O
- Activity [1]: 213.3 mg%
- Activity [2]: inactive
- Activity [3]: 83.63 IU/L
- Activity [4]: 172.3 mg%
- Activity [5]: 4.27 mmol/L
- Activity [6]: 0.769 mg%
- Activity [7]: Active
- Activity [8]: inactive
- Activity [9]: 3.19 mmol/L
- Activity [10]: 1.73
- Activity [11]: 18.13 IU/L
- Activity [12]: 7.81
- Activity [13]: Dose-Dependent Effect
- Activity [14]: Dose-Dependent Effect
- Activity [15]: Active
- Activity [16]: Active
- Activity [17]: Active
- Activity [18]: 2.13 mmol/L
- Activity [19]: 79.5 IU/L
- Activity [20]: Dose-Dependent Effect
- Activity [21]: 54.5 IU/L
- Activity [22]: 227.7 mg%
- Activity [23]: 2.35%
- Activity [24]: 16.98%
- Activity [25]: Dose-Dependent Effect
- Activity [26]: 3.15 mmol/L
- Activity [27]: Dose-Dependent Effect
- Activity [28]: 13.88 uU/ml
- Activity [29]: 254.7 mg%
- Activity [30]: Active
- Activity [31]: 1.06 mmol/L
